Assay results reported in ChEMBL document CHEMBL5465560, “Selectivity Literature for EUbOPEN Chemogenomic Library” (2024).

Experiments:
[1] = biological target: T1, Testis-specific serine/threonine-protein kinase 2 (Homo sapiens) (UniProt Q96PF2); test: Selectivity interaction (Kinase panel (Z-LYTE Assay)) EUB0001632a TSSK2; settings: at 10 µM
T1 sequence (whole entry): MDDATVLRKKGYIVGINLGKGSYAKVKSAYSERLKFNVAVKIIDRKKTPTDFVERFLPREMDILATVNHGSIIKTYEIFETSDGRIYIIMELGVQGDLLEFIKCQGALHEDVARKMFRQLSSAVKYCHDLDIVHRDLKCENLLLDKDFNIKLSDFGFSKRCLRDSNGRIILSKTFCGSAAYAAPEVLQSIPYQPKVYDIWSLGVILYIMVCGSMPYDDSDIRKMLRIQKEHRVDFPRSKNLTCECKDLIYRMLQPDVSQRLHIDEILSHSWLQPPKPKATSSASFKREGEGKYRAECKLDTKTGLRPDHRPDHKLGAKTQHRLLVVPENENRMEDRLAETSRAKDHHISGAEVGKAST

[2] = biological target: T2, Serine/threonine-protein kinase Sgk3 (Homo sapiens) (UniProt Q96BR1); test: Selectivity interaction (KinomeScan (DiscoverX)) EUB0000666a SGK3; settings: at 10 µM
T2 sequence (whole entry): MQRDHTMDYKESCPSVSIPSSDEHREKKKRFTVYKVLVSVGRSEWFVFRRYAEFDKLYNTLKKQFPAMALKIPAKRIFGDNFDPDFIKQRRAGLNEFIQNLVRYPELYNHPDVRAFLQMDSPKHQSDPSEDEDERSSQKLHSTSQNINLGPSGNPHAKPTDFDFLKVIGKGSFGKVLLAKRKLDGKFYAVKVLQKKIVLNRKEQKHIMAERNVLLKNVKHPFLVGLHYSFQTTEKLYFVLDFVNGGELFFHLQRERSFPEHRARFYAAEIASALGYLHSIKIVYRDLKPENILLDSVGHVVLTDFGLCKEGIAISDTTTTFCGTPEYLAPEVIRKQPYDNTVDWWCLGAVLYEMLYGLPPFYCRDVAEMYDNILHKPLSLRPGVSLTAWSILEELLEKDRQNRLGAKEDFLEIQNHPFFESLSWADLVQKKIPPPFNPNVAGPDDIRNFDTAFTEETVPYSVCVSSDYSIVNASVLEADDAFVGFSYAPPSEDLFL

[3] = biological target: Ribosomal protein S6 kinase alpha-3 (Homo sapiens, UniProt P51812); test: Selectivity interaction (ActivX KiNativ screen (kinase selectivity in THP-1 cell lysates)) EUB0000639a RPS6KA3; format: subcellular; settings: lysate, at 0.01 µM
[4] = biological target: Tyrosine-protein kinase SYK (Homo sapiens, UniProt P43405); test: Selectivity interaction (ActivX KiNativ screen (kinase selectivity in THP-1 cell lysates)) EUB0000639a SYK; format: subcellular; settings: lysate, at 0.04 µM
[5] = biological target: Glucocorticoid receptor (Homo sapiens) (UniProt P04150); test: Selectivity interaction (Panel of non-epigenetic targets (kinases, GPCRs, ion channels, and transporters, Eurofins) ) EUB0000271b NR3C1; settings: at 1 µM
[6] = biological target: MAP kinase-activated protein kinase 2 (Homo sapiens, UniProt P49137); test: Selectivity interaction (Kinase screening (Nanosyn)) EUB0000604a MAPKAPK2
[7] = biological target: T3, Serine/threonine-protein kinase 17A (Homo sapiens) (UniProt Q9UEE5); test: Selectivity interaction (Ambit KINOMEscan and KiNATiv profiling in Jurkat cells) EUB0000090b STK17A; format: cell-based; settings: at 1 µM
T3 sequence (whole entry): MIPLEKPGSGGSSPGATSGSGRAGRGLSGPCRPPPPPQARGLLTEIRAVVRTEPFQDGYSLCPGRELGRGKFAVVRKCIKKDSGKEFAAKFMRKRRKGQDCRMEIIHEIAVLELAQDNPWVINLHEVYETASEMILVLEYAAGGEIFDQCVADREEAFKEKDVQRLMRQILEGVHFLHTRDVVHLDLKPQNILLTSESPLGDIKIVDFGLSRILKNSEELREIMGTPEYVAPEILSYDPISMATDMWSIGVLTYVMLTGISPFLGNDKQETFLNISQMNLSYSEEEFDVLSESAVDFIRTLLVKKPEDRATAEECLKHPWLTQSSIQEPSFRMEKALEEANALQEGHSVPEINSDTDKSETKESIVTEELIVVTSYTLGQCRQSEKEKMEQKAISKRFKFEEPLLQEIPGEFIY

[8] = biological target: Tyrosine-protein kinase FRK (Homo sapiens) (UniProt P42685); test: Selectivity interaction (KinomeScan (DiscoverX)) EUB0000045b FRK
[9] = biological target: T4, Serine/threonine-protein kinase DCLK3 (Homo sapiens) (UniProt Q9C098); test: Selectivity interaction (KinomeScan (DiscoverX)) EUB0000092b DCLK3; settings: at 10 µM
T4 sequence (whole entry): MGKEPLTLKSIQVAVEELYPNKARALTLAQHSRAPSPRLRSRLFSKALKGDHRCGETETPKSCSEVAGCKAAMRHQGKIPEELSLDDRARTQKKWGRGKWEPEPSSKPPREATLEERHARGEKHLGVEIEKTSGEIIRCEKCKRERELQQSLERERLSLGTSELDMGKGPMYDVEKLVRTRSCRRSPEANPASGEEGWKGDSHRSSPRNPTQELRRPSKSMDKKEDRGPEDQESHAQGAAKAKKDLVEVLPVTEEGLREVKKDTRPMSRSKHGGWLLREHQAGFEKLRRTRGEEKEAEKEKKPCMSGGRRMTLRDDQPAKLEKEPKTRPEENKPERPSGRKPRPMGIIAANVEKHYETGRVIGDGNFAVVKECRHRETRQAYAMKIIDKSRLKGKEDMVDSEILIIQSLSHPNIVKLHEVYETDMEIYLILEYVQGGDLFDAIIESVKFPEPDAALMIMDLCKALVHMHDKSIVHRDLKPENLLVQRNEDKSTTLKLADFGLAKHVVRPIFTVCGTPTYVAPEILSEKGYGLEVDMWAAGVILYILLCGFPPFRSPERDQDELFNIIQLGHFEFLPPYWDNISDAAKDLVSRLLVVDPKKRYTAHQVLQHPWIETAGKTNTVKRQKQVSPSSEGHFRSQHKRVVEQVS

Tyrosine-protein kinase FRK (Homo sapiens), sequence (P42685 whole entry): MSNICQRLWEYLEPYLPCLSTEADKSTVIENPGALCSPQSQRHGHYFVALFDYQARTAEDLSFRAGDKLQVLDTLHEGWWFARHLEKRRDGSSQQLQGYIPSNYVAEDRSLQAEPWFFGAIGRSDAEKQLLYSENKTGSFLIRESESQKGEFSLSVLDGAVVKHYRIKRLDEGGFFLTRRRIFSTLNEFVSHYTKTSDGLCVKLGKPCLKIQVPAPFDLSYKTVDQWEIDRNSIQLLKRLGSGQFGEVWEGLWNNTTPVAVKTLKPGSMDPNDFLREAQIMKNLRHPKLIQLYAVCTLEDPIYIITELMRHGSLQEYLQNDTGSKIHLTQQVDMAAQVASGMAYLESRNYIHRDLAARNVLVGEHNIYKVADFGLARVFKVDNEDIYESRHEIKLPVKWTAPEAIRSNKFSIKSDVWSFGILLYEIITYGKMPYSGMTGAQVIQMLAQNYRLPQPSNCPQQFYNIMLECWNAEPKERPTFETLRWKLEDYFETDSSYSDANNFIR
MAP kinase-activated protein kinase 2, sequence (P49137 whole entry, looked up): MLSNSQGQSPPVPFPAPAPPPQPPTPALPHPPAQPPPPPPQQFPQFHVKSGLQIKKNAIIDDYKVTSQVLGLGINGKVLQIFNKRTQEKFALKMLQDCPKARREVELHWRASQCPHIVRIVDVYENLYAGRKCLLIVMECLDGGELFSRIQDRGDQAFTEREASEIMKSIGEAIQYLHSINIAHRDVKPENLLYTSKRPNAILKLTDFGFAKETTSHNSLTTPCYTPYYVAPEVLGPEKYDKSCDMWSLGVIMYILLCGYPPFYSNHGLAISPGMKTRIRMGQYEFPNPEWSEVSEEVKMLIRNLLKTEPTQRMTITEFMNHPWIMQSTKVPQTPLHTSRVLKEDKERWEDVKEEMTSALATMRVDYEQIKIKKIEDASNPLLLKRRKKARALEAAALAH
Glucocorticoid receptor (Homo sapiens), sequence (P04150 whole entry): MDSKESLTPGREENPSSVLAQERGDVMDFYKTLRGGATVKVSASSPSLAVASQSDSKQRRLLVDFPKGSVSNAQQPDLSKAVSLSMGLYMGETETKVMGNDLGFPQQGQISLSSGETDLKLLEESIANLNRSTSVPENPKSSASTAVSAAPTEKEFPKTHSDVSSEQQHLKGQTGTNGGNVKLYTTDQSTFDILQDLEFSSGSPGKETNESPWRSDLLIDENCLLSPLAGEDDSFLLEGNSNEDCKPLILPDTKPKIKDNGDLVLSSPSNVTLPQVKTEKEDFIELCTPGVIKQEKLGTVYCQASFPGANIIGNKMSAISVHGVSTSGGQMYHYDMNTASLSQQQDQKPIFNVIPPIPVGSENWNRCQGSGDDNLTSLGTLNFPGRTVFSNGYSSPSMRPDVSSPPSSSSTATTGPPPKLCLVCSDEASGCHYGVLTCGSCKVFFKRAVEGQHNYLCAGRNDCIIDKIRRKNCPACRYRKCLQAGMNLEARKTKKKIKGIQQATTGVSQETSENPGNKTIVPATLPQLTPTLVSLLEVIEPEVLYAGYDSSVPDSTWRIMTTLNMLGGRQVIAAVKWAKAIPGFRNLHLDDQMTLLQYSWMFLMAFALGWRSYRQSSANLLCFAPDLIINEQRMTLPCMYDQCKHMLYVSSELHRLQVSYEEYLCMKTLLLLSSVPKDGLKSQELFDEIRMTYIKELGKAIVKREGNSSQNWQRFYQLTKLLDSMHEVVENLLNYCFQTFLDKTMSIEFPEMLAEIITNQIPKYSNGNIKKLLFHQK
Ribosomal protein S6 kinase alpha-3, sequence (P51812 whole entry): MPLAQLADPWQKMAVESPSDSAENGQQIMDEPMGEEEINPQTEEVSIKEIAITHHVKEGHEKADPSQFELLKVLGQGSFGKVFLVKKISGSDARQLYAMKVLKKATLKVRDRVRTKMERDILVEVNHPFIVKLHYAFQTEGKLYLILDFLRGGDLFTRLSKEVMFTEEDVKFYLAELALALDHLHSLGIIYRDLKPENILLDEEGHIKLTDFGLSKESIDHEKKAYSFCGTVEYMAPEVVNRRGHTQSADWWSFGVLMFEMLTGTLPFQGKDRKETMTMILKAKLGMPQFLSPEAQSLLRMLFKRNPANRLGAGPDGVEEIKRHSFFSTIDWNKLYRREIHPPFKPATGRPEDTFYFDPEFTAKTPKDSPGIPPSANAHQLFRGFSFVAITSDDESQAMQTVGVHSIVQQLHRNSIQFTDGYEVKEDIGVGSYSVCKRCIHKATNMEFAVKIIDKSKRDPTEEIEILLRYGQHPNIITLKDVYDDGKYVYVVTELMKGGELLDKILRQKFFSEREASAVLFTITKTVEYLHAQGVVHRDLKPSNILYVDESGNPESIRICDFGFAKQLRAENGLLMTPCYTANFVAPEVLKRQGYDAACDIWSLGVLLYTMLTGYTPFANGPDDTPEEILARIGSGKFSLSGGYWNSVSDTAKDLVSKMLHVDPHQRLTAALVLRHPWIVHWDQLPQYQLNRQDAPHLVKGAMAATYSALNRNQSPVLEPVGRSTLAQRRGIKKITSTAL

Structure (SMILES): Cn1cc(-n2cnc3c(NCc4nc5cc(Cl)c(Cl)cc5[nH]4)nc(N4CCOCC4)nc32)cn1
- % of control [1]: -16.5%

Structure (SMILES): O=C(NOC[C@H](O)CO)c1ccc(F)c(F)c1Nc1ccc(I)cc1F
- % of control [2]: 89%

Structure (SMILES): CC[C@@H]1[C@H](F)C(=O)N[C@@H]1COc1nccc2cc(C(N)=O)c(OC)cc12 [ZIMLOVISERTIB]
- % of inhibition [3]: 5%
- % of inhibition [4]: 5.5%

Structure (SMILES): Cc1cc(C)cc([C@@H]2c3cc(C)ccc3NC(=O)CN2C(=O)c2ccc(Br)s2)c1
- % of inhibition [5]: 15%

Structure (SMILES): Cc1cnc(Nc2ccc(F)cc2Cl)nc1-c1c[nH]c(C(=O)N[C@H](CO)c2cccc(Cl)c2)c1
- % of inhibition [6]: 0%

Structure (SMILES): CN(C)C/C=C/C(=O)Nc1ccc(C(=O)N2CCCC(Nc3ncc(Cl)c(-c4c[nH]c5ccccc45)n3)C2)cc1 (stereo not given)
- % of control [7]: 70%

Structure (SMILES): C=CC(=O)Nc1cc(-n2c(=O)ccc3cnc4ccc(-c5ccc(NS(C)(=O)=O)cc5)cc4c32)ccc1C
- % of control ([8]; at 1 µM): 100%
- % of control ([8]; at 10 µM): 98%

Structure (SMILES): CCC(=O)N1CCN(c2ccc(-n3c(=O)ccc4cnc5ccc(-c6cnc7ccccc7c6)cc5c43)cc2C(F)(F)F)CC1
- % of control [9]: 97%
